Data from ChEMBL document CHEMBL1151745, “Identification of potent, selective, and metabolically stable peptide antagonists to the calcitonin gene-related peptide (CGRP) receptor” (J Med Chem, 2008).
Active and inactive are the calls of the source. No cut-off for these calls is given here. Where a SMILES comes first, the peptide text is derived from it. [ ]: non-standard residue; d: D form. Igl = N[C@H](C(=O)O)C1Cc2ccccc2C1; hArg = N=C(N)NCCCC[C@H](N)C(=O)O; Tic = O=C(O)[C@@H]1Cc2ccccc2CN1; Cit = NC(=O)NCCC[C@H](N)C(=O)O

The molecules below were run against Calcitonin gene-related peptide type 1 receptor (Homo sapiens) (UniProt Q16602) (assay: Agonist activity at human CGRP1 receptor in human SK-N-MC cells).
Calcitonin gene-related peptide type 1 receptor (Homo sapiens), sequence (Q16602 whole entry, looked up): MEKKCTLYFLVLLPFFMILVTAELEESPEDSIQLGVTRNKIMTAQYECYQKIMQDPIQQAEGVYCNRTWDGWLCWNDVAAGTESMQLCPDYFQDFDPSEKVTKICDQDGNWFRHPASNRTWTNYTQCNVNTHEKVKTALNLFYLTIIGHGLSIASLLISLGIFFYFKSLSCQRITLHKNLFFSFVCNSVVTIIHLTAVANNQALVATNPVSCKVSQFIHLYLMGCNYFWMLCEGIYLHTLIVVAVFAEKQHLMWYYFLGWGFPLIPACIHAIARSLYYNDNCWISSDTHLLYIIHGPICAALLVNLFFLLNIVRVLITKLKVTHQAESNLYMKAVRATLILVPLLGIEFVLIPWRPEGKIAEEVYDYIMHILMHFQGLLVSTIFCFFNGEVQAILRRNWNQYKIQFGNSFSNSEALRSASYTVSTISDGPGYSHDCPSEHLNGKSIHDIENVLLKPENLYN

Row | Activity | Compound
1 | inactive | CC(=O)N[C@@H](Cc1c[nH]c2ccccc12)C(=O)N[C@H](C(=O)N[C@H](C(=O)N[C@@H](Cc1cnc[nH]1)C(=O)N[C@@H](CCCNC(N)=O)C(=O)N[C@@H](CC(C)C)C(=O)N[C@@H](C)C(=O)NCC(=O)N[C@@H](CC(C)C)C(=O)N[C@@H](CC(C)C)C(=O)N[C@@H](CO)C(=O)N[C@@H](CCCNC(N)=O)C(=O)N[C@@H](CO)C(=O)NCC(=O)NCC(=O)N[C@H](C(=O)N[C@H](C(=O)N[C@@H](CCCCNC(=N)N)C(=O)N[C@@H](CCCCN)C(=O)N[C@@H](CC(N)=O)C(=O)N[C@@H](Cc1ccccc1)C(=O)N[C@H](C(=O)N1CCC[C@H]1C(=O)N[C@H](C(=O)N[C@@H](CC(=O)O)C(=O)N[C@H](C(=O)NCC(=O)N1Cc2[nH]c3ccccc3c2C[C@H]1C(=O)N[C@@H](Cc1ccccc1)C(=O)N[C@@H](C)C(=O)N[C@@H](Cc1ccccc1)C(N)=O)C(C)C)[C@@H](C)O)C(C)C)C(C)C)C(C)C)[C@@H](C)O)C(C)C
2 | inactive | CC(=O)N[C@@H](Cc1c[nH]c2ccccc12)C(=O)N[C@H](C(=O)N[C@H](C(=O)N[C@@H](Cc1cnc[nH]1)C(=O)N[C@@H](CCCNC(N)=O)C(=O)N[C@@H](CC(C)C)C(=O)N[C@@H](C)C(=O)NCC(=O)N[C@@H](CC(C)C)C(=O)N[C@@H](CC(C)C)C(=O)N[C@@H](CO)C(=O)N[C@@H](CCCNC(N)=O)C(=O)N[C@@H](CO)C(=O)NCC(=O)NCC(=O)N[C@H](C(=O)N[C@H](C(=O)N[C@@H](CCCCNC(=N)N)C(=O)N[C@@H](CCCCN)C(=O)N[C@@H](CC(N)=O)C(=O)N[C@@H](Cc1ccccc1)C(=O)N[C@H](C(=O)N1CCC[C@H]1C(=O)N[C@H](C(=O)N[C@@H](CC(=O)O)C(=O)N[C@H](C(=O)NCC(=O)N1CSC[C@H]1C(=O)N[C@@H](Cc1ccccc1)C(=O)N[C@@H](C)C(=O)N[C@@H](Cc1ccccc1)C(N)=O)C(C)C)[C@@H](C)O)C(C)C)C(C)C)C(C)C)[C@@H](C)O)C(C)C
3 | inactive | CC(=O)N[C@@H](Cc1c[nH]c2ccccc12)C(=O)N[C@H](C(=O)N[C@H](C(=O)N[C@@H](Cc1cnc[nH]1)C(=O)N[C@@H](CCCNC(N)=O)C(=O)N[C@@H](CC(C)C)C(=O)N[C@@H](C)C(=O)NCC(=O)N[C@@H](CC(C)C)C(=O)N[C@@H](CC(C)C)C(=O)N[C@@H](CO)C(=O)N[C@@H](CCCNC(N)=O)C(=O)N[C@@H](CO)C(=O)NCC(=O)NCC(=O)N[C@H](C(=O)N[C@H](C(=O)N[C@@H](CCCCNC(=N)N)C(=O)N[C@@H](CCCCN)C(=O)N[C@@H](CC(N)=O)C(=O)N[C@@H](Cc1ccccc1)C(=O)N[C@H](C(=O)N1CCC[C@H]1C(=O)N[C@H](C(=O)N[C@@H](CC(=O)O)C(=O)N[C@H](C(=O)NCC(=O)N(C)CC(=O)N[C@@H](Cc1ccccc1)C(=O)N[C@@H](C)C(=O)N[C@@H](Cc1ccccc1)C(N)=O)C(C)C)[C@@H](C)O)C(C)C)C(C)C)C(C)C)[C@@H](C)O)C(C)C
4 | inactive | CC(=O)N[C@@H](Cc1c[nH]c2ccccc12)C(=O)N[C@H](C(=O)N[C@H](C(=O)N[C@@H](Cc1cnc[nH]1)C(=O)N[C@@H](CCCNC(=N)N)C(=O)N[C@@H](CC(C)C)C(=O)N[C@@H](C)C(=O)NCC(=O)N[C@@H](CC(C)C)C(=O)N[C@@H](CC(C)C)C(=O)N[C@@H](CO)C(=O)N[C@@H](CCCNC(N)=O)C(=O)N[C@@H](CO)C(=O)NCC(=O)NCC(=O)N[C@H](C(=O)N[C@H](C(=O)N[C@@H](CCCNC(=N)N)C(=O)N[C@@H](CCCCN)C(=O)N[C@@H](CC(N)=O)C(=O)N[C@@H](Cc1ccccc1)C(=O)N[C@H](C(=O)N1CCC[C@H]1C(=O)N[C@H](C(=O)N[C@@H](CC(=O)O)C(=O)N[C@H](C(=O)NCC(=O)N1CCC[C@H]1C(=O)N[C@@H](Cc1ccccc1)C(=O)N[C@@H](C)C(=O)N[C@@H](Cc1ccccc1)C(N)=O)C(C)C)[C@@H](C)O)C(C)C)C(C)C)C(C)C)[C@@H](C)O)C(C)C
5 | inactive | CC(=O)N[C@@H](Cc1c[nH]c2ccccc12)C(=O)N[C@H](C(=O)N[C@H](C(=O)N[C@@H](Cc1cnc[nH]1)C(=O)N[C@@H](CCCNC(N)=O)C(=O)N[C@@H](CC(C)C)C(=O)N[C@@H](C)C(=O)NCC(=O)N[C@@H](CC(C)C)C(=O)N[C@@H](CC(C)C)C(=O)N[C@@H](CO)C(=O)N[C@@H](CCCNC(N)=O)C(=O)N[C@@H](CO)C(=O)NCC(=O)NCC(=O)N[C@H](C(=O)N[C@H](C(=O)N[C@@H](CCCCNC(=N)N)C(=O)N[C@@H](CCCCN)C(=O)N[C@@H](CC(N)=O)C(=O)N[C@@H](Cc1ccccc1)C(=O)N[C@H](C(=O)N1C(C(=O)N[C@H](C(=O)N[C@@H](CC(=O)O)C(=O)N[C@H](C(=O)NCC(=O)N2C3CCCCC3C[C@H]2C(=O)N[C@@H](Cc2ccccc2)C(=O)N[C@@H](C)C(=O)N[C@@H](Cc2ccccc2)C(N)=O)C(C)C)[C@@H](C)O)CC2CCCCC21)C(C)C)C(C)C)C(C)C)[C@@H](C)O)C(C)C (stereo partly specified)
6 | inactive | CC(C)C[C@H](NC(=O)CNC(=O)[C@H](C)NC(=O)[C@H](CC(C)C)NC(=O)[C@H](CCCNC(=N)N)NC(=O)[C@H](Cc1cnc[nH]1)NC(=O)[C@@H](NC(=O)[C@@H](NC(=O)[C@@H](N)Cc1c[nH]c2ccccc12)C(C)C)[C@@H](C)O)C(=O)N[C@@H](CC(C)C)C(=O)N[C@@H](CO)C(=O)N[C@@H](CCCNC(=N)N)C(=O)N[C@@H](CO)C(=O)NCC(=O)NCC(=O)N[C@H](C(=O)N[C@H](C(=O)N[C@@H](CCCCN)C(=O)N[C@@H](CC(N)=O)C(=O)N[C@@H](CC(N)=O)C(=O)N[C@@H](Cc1ccccc1)C(=O)N[C@H](C(=O)N1CCC[C@H]1C(=O)N[C@H](C(=O)N[C@@H](CC(N)=O)C(=O)N[C@H](C(=O)NCC(=O)N[C@@H](CO)C(=O)N[C@@H](CCCCN)C(=O)N[C@@H](C)C(=O)N[C@@H](Cc1ccccc1)C(N)=O)C(C)C)[C@@H](C)O)C(C)C)C(C)C)C(C)C
7 | inactive | CC(=O)N[C@@H](Cc1c[nH]c2ccccc12)C(=O)N[C@H](C(=O)N[C@H](C(=O)N[C@@H](Cc1cnc[nH]1)C(=O)N[C@@H](CCCNC(N)=O)C(=O)N[C@@H](CC(C)C)C(=O)N[C@@H](C)C(=O)NCC(=O)N[C@@H](CC(C)C)C(=O)N[C@@H](CC(C)C)C(=O)N[C@@H](CO)C(=O)N[C@@H](CCCNC(N)=O)C(=O)N[C@@H](CO)C(=O)NCC(=O)NCC(=O)N[C@H](C(=O)N[C@H](C(=O)N[C@@H](CCCCNC(=N)N)C(=O)N[C@@H](CCCCN)C(=O)N[C@@H](CC(N)=O)C(=O)N[C@@H](Cc1ccccc1)C(=O)N[C@H](C(=O)N1CCC[C@H]1C(=O)N[C@H](C(=O)N[C@@H](CC(=O)O)C(=O)N[C@H](C(=O)NCC(=O)N1CCC[C@H]1C(=O)N[C@H](C(=O)N[C@@H](C)C(=O)N[C@@H](Cc1ccccc1)C(N)=O)C1Cc2ccccc2C1)C(C)C)[C@@H](C)O)C(C)C)C(C)C)C(C)C)[C@@H](C)O)C(C)C (Ac-WVTH[Cit]LAGLLS[Cit]SGGVV[hArg]KNFVPTDVGP[Igl]AF-NH2)
8 | inactive | CC(=O)N[C@@H](Cc1c[nH]c2ccccc12)C(=O)N[C@H](C(=O)N[C@H](C(=O)N[C@@H](Cc1cnc[nH]1)C(=O)N[C@@H](CCCNC(N)=O)C(=O)N[C@@H](CC(C)C)C(=O)N[C@@H](C)C(=O)NCC(=O)N[C@@H](CC(C)C)C(=O)N[C@@H](CC(C)C)C(=O)N[C@@H](CO)C(=O)N[C@@H](CCCNC(N)=O)C(=O)N[C@@H](CO)C(=O)NCC(=O)NCC(=O)N[C@H](C(=O)N[C@H](C(=O)N[C@@H](CCCCNC(=N)N)C(=O)N[C@@H](CCCCN)C(=O)N[C@@H](CC(N)=O)C(=O)N[C@@H](Cc1ccccc1)C(=O)N[C@H](C(=O)N1CCC[C@H]1C(=O)N[C@H](C(=O)N[C@@H](CC(=O)O)C(=O)N[C@H](C(=O)NCC(=O)N1CCC[C@@H]1C(=O)N[C@@H](Cc1ccccc1)C(=O)N[C@@H](C)C(=O)N[C@@H](Cc1ccccc1)C(N)=O)C(C)C)[C@@H](C)O)C(C)C)C(C)C)C(C)C)[C@@H](C)O)C(C)C
9 | inactive | CC(=O)N[C@@H](Cc1c[nH]c2ccccc12)C(=O)N[C@H](C(=O)N[C@H](C(=O)N[C@@H](Cc1cnc[nH]1)C(=O)N[C@@H](CCCNC(N)=O)C(=O)N[C@@H](CC(C)C)C(=O)N[C@@H](C)C(=O)NCC(=O)N[C@@H](CC(C)C)C(=O)N[C@@H](CC(C)C)C(=O)N[C@@H](CO)C(=O)N[C@@H](CCCNC(N)=O)C(=O)N[C@@H](CO)C(=O)NCC(=O)NCC(=O)N[C@H](C(=O)N[C@H](C(=O)N[C@@H](CCCCNC(=N)N)C(=O)N[C@@H](CCCCN)C(=O)N[C@@H](CC(N)=O)C(=O)N[C@@H](Cc1ccccc1)C(=O)N[C@H](C(=O)N1CCC[C@H]1C(=O)N[C@H](C(=O)N[C@@H](CC(=O)O)C(=O)N[C@H](C(=O)NCC(=O)N1CCC[C@H]1C(=O)N1Cc2ccccc2C[C@H]1C(=O)N[C@@H](C)C(=O)N[C@@H](Cc1ccccc1)C(N)=O)C(C)C)[C@@H](C)O)C(C)C)C(C)C)C(C)C)[C@@H](C)O)C(C)C (Ac-WVTH[Cit]LAGLLS[Cit]SGGVV[hArg]KNFVPTDVGP[Tic]AF-NH2)
10 | inactive | CC(=O)N[C@@H](Cc1c[nH]c2ccccc12)C(=O)N[C@H](C(=O)N[C@H](C(=O)N[C@@H](Cc1cnc[nH]1)C(=O)N[C@@H](CCCNC(N)=O)C(=O)N[C@@H](CC(C)C)C(=O)N[C@@H](C)C(=O)NCC(=O)N[C@@H](CC(C)C)C(=O)N[C@@H](CC(C)C)C(=O)N[C@@H](CO)C(=O)N[C@@H](CCCNC(N)=O)C(=O)N[C@@H](CO)C(=O)NCC(=O)NCC(=O)N[C@H](C(=O)N[C@H](C(=O)N[C@@H](CCCCNC(=N)N)C(=O)N[C@@H](CCCCN)C(=O)N[C@@H](CC(N)=O)C(=O)N[C@@H](Cc1ccc2ccccc2c1)C(=O)N[C@H](C(=O)N1CCC[C@H]1C(=O)N[C@H](C(=O)N[C@@H](CC(=O)O)C(=O)N[C@H](C(=O)NCC(=O)N1C2CCCCC2C[C@H]1C(=O)N[C@@H](Cc1ccccc1)C(=O)N[C@@H](C)C(=O)N[C@@H](Cc1ccc2ccccc2c1)C(N)=O)C(C)C)[C@@H](C)O)C(C)C)C(C)C)C(C)C)[C@@H](C)O)C(C)C (stereo partly specified)
11 | inactive | CC(=O)N[C@@H](Cc1c[nH]c2ccccc12)C(=O)N[C@H](C(=O)N[C@H]1CCC(=O)NCCCC[C@@H](C(=O)NCC(=O)N[C@H]2CCC(=O)NCCCC[C@@H](C(=O)NCC(=O)NCC(=O)N[C@H](C(=O)N[C@H](C(=O)N[C@@H](CCCCNC(=N)N)C(=O)N[C@@H](CCCCN)C(=O)N[C@@H](CC(N)=O)C(=O)N[C@@H](Cc3ccccc3)C(=O)N[C@H](C(=O)N3CCC[C@H]3C(=O)N[C@H](C(=O)N[C@@H](CC(=O)O)C(=O)N[C@H](C(=O)NCC(=O)N3CCC[C@H]3C(=O)N[C@@H](Cc3ccccc3)C(=O)N[C@@H](C)C(=O)N[C@@H](Cc3ccccc3)C(N)=O)C(C)C)[C@@H](C)O)C(C)C)C(C)C)C(C)C)NC(=O)[C@H](CCCNC(=N)N)NC(=O)[C@H](CO)NC(=O)[C@H](CC(C)C)NC2=O)NC(=O)[C@H](CC(C)C)NC(=O)[C@H](CCCNC(=N)N)NC(=O)[C@H](Cc2cnc[nH]2)NC1=O)C(C)C
